Data reported in article PMC5289470, “The biodistribution of 5-[^18F]fluoropyrazinamide in Mycobacterium tuberculosis-infected mice determined by positron emission tomography” (PLoS ONE, 2017).
Converted amounts (≈) assume the structure as drawn. “Also recorded” adds a separate entry of the source. Where two headings read alike, the source gives them in different places.

Legend:
[1] = test system: heat-killed control cultures; assay: Accumulation assay in heat-killed bacteria (negative control); conditions: heat-killed 90°C for 30 min
M. tuberculosis (H37Rv) = assay: In vitro accumulation assay, M. tuberculosis; type: cell-based; conditions: 120 min of incubation
[2] = test system: Staphylococcus aureus (ATCC 29213); assay: In vitro accumulation assay, S. aureus; type: cell-based; conditions: 120 min of incubation
[3] = PET/CT imaging and ex vivo biodistribution in M. tuberculosis-infected and uninfected mice
[4] = test system: Escherichia coli (ATCC 25922); assay: In vitro accumulation assay, E. coli; type: cell-based; conditions: 120 min of incubation
[5] = mouse, 740 kBq/mL
[6] = test system: Pseudomonas aeruginosa (ATCC 10145); assay: In vitro accumulation assay, P. aeruginosa; type: cell-based; conditions: 120 min of incubation
[7] = test system: J774A.1 murine macrophage cells; assay: Uptake assay in macrophage cells; type: cell-based; conditions: 120 min of incubation
M. tuberculosis H37Rv = assay: MIC by agar dilution method; type: cell-based; conditions: Mycobacterium tuberculosis, acidic agar pH 5.5 to 6, 30 days
M. tuberculosis = test system: M. tuberculosis; parameters: method as in PMID 23287128; conditions: ref [31]; cited from earlier work
[8] = type: in vitro ADME, mouse
Protocol: Test compounds were weighed and dissolved in dimethyl sulfoxide (DMSO) to give 10 mM stock solutions. The stock solutions were diluted to 500 μM with a mixture of methanol and H2O (1:1), and the final concentrations of DMSO and methanol were equal to, or less than, 0.1%. Liver microsome incubations were conducted in duplicate in 96—well plates. Each well contained 40 μL of 0.1 M potassium phosphate buffer (pH 7.4), 2.5 mM MgCl2, 0.625 mg/mL mouse liver microsomes, and test compound (1.25 μM) or positive control. After a 5 min pre-incubation at 37°C, 10 μL of 5.0 mM NADPH in 0.1 M potassium phosphate buffer was added to initiate the enzymatic reaction. The final concentrations were 0.1M potassium phosphate (pH 7.4), 1.0 mM NADPH, 2.0 mM MgCl2, 0.5 mg/mL mouse liver microsomes, and test compound (1.0 μM) or positive control (1.0 μM). Reactions were terminated at various time points (0, 5, 10, 20, 40 min) by adding 100 μL of ice-cold acetonitrile containing internal standard. A parallel incubation was performed using 0.1 M potassium phosphate (pH 7.4) instead of NADPH as the negative control, and the reaction was terminated 40 min after incubation at 37°C. Compound quantitation was performed on a Shimadzu liquid chromatographic system coupled with an API4000 mass spectrometer equipped with TurboIonSpray (ESI) Interface (Applied Biosystems).

[9] = M. tuberculosis H37Rv, read-out: MIC

NC(=O)c1cnc([18F])cn1 [5-[^18F]F-PZA, 5-[^18F]F-pyrazinamide]
Uptake in heat-killed control cultures [1]: no uptake | In vitro accumulation in M. tuberculosis (M. tuberculosis (H37Rv)): 0.094% | In vitro accumulation in S. aureus [2]: 0.123±0.014 | bone activity ([3]; PET 10 min and 30 min post-injection, post-mortem analysis): significant activity in the bones | distribution to organs after intravenous administration ([3]; PET imaging): rapidly distributed to various organs | elimination from organs ([3]; PET imaging): rapidly eliminated from all major organs | ex vivo activity in lung (and spleen), infected vs uninfected ([3]; direct γ counting after PET imaging): higher activity in uninfected lung tissue compared to infected lungs; also recorded: higher activity in uninfected lung and spleen tissues | PET concentration (%ID/cc) in blood, liver, bone and lungs, infected vs uninfected mice ([3]; intravenous, throughout 60 min post-injection): not significantly different; also recorded: No significant difference | In vitro accumulation in E. coli [4]: 0.055±0.005 | incubation time after which defluorination could be detected [5]: 2 min | percent of total activity defluorinated ([5]; 30 min): ~ 25% | percent defluorination ([5]; 60 min): ~ 40% | In vitro accumulation in P. aeruginosa [6]: 0.043±0.026 | Accumulation in J774A.1 murine macrophage cells [7]: 0.057±0.019

NC(=O)c1cnccn1 [PZA, pyrazinamide]
MIC (M. tuberculosis H37Rv; [9]): 20 µg/mL (≈ 0.162 mM)

NC(=O)c1cnc(Cl)cn1 [5-Cl-PZA, 5-Chloropyrazinamide]
activity in M. tuberculosis-infected mice (M. tuberculosis): lack of activity

NC(=O)c1cnc(F)cn1 [5-F-PZA, 5-Fluoropyrazinamide]
MIC (M. tuberculosis H37Rv; H37RV, read-out: concentration up to which bacterial growth was not inhibited (MIC)): > 2000 µg/mL | MIC (M. tuberculosis H37Rv; [9]): > 2000 µg/mL | fraction of initial concentration metabolized ([8]; CD-1, mouse, microsomes, 40 min, 1 μM, pH 7.4): approximately 20% | stability in the presence of liver microsomes ([8]; mouse): not stable
